{
  "source": "paper PMC8739290",
  "about": "“A phase 1b study of erlotinib and momelotinib for the treatment of EGFR-mutated, tyrosine kinase inhibitor-naive metastatic non-small cell lung cancer” (Cancer Chemotherapy and Pharmacology, 2021)",
  "origin": "cited, not measured here",
  "key": {"[1]": {"test_system": "PC-9 xenograft tumors and EGFR-mutant transgenic mice", "design": "method as in PMID 24238495", "conditions": "cited from earlier work"}, "EGFR-mutated NSCLC lines": {"test_system": "EGFR-mutated NSCLC lines", "design": "method as in PMID 18060032", "conditions": "multiple EGFR-mutated NSCLC lines; cited from earlier work"}, "HCC827 xenograft model": {"test_system": "HCC827 xenograft model", "design": "method as in doi:10.1158/1538-7445.AM2018-2938", "conditions": "cited from earlier work"}},
  "data": [
    {"smiles": "Cc1cc(Nc2nc(N[C@@H](C)c3ncc(F)cn3)ncc2Cl)n[nH]1", "note": "[AZD1480]", "values": [
      {"measurement": "single-agent activity", "setting": "[1]; PC-9 xenograft tumors and EGFR-mutant transgenic mice", "result": "independent activity"},
      {"measurement": "number of lung tumors", "setting": "[1]", "result": "decreased number of lung tumors"},
      {"measurement": "overall survival", "setting": "[1]", "result": "improved overall survival"}
    ]},
    {"smiles": "CC(C)(C)c1nc2c3ccc(F)cc3c3c(=O)[nH]ccc3c2[nH]1", "note": "[P6]", "values": [
      {"measurement": "effect on cell cycle", "setting": "EGFR-mutated NSCLC lines", "result": "cell-cycle arrest at the G2/M phase"},
      {"measurement": "effect on colony formation", "setting": "EGFR-mutated NSCLC lines", "result": "suppressed colony formation"},
      {"measurement": "effect on phosphorylated-STAT3 (pSTAT3)", "setting": "EGFR-mutated NSCLC lines", "result": "uniformly abrogated pSTAT3"}
    ]},
    {"smiles": "N#CCC1(n2cc(-c3ncnc4[nH]ccc34)cn2)CN(C2CCN(C(=O)c3ccnc(C(F)(F)F)c3F)CC2)C1", "note": "[itacitinib]", "values": [
      {"measurement": "single-agent activity", "setting": "HCC827 xenograft model; HCC827 xenograft model", "result": "independent activity"},
      {"measurement": "tumor growth inhibition in combination", "setting": "HCC827 xenograft model; itacitinib in combination with erlotinib or osimertinib", "result": "synergistic tumor growth inhibition"}
    ]}
  ]
}
